We go through four molecules from patent publication US8030047B2, “Active truncated form of the RNA polymerase of flavivirus” (priority 2003, dated 2011).

One experiment has as its target T1, NS5PolDV (Dengue virus type 2, UniProt P14340).
T1 construct: The junction (or where the Pol domain starts) is located at amino acid 272; His-tag; made in house; host or cells: E. coli BL21[pDNAy], plasmid pQE30
The experiment can be described thus: RNA polymerase activity of NS5PolDV on homopolymeric template poly(rC), [3H]-GTP incorporation. The class given is biochemical, Dengue virus (subtype 2, Strain New Guinea C). As to conditions: for IC50: poly(rC) without primer, GTP 10 mM (so in the source), NS5PolDV 60 nM, [3H]-GTP incorporation after 15 min. The procedure: (§1) Activity was tested on three homopolymeric templates: poly(rC), poly(rU) and poly(rA). Only poly(rC) resulted to be a productive template for NS5PolDV. This was illustrated in FIG. 4 based on the following protocol: RNA polymerase activity was tested on a homopolymeric RNA template (polycytidylic acid, Amersham Biosciences) of an average length of 360 nt. A standard assay was carried out in 50 mM HEPES buffer, pH 8.0, 10 mM KCl, 5 mM MgCl2, 5 mM MnCl2, 10 mM DTT containing 1 μM template, […] primer GG, 10 μM GTP, 0.01 mCi [3H]-GTP per μl reaction mixture and the concentration of enzyme given below. Reactions were carried out at 30° C. for given time periods and stopped by spotting a sample on DEAE filter discs (Whatman) presoaked with 50 mM EDTA. Filters were washed 3×10 min with 300 mM (NH4)2SO4 buffer, pH 8.0 and 2×5 min with EtOH and air-dried. Liquid scintillation fluid was added and incorporation in counts per minute (cpm) determined by using a Wallac MicroBeta TriLux Liquid Scintillation Counter.
A: Influence of specific E. coli RNA polymerase inhibitor rifampicin on NS5PolDV and E. coli polymerase (control). NS5PolDV was tested using the conditions given above at 64-nM enzyme concentration. E. coli RNA polymerase was obtained from USBiochemicals and used in NS5PolDV standard reaction buffer at 37 nM.
In FIG. 5, the steady-state Km determination of GTP with various ligands was performed as follows: RNA polymerase activity was tested under conditions given in the description set forth above in the experiments related to FIG. 4 without the use of a primer. Initial velocities were determined over a time period of 5 min. GTP concentrations in the range of 2 to 500 μM were tested using poly(rC) at 1 μM. Template poly(rC) was tested in the range of 2 to 1000 nM with GTP fixed at 200 μM.
Initial velocities were determined on poly(rC) at 10 mM GTP and compared to corresponding values without inhibitor. […] Since these inhibition results are not identical, questions related to the putative interference of the capping domain remain when using the full-length polymerase.

The next experiment concerns the target T2, NS5PolWNV (West Nile virus, UniProt Q9Q6P4, K2808N/V2900A).
T2 construct: His-tag; made in house
The experiment can be described thus: RNA polymerase activity of NS5PolWNV on homopolymeric template poly(rC), [3H]-GTP incorporation. The class given is biochemical, West Nile virus (strain New York 99). As to conditions: poly(rC) without primer; GTP 100 mM (so in the source); [3H]-GTP incorporation after 15 min.

In the next experiment the target is T3, full-length NS5DV (Dengue virus type 2, UniProt P14340).
T3 construct: His-tag; made in house; host or cells: E. coli BL21[pDNAy], plasmid pQE30
Nature of the experiment: RNA polymerase activity of full-length NS5DV on poly(rC). It counts as biochemical, Dengue virus (subtype 2, Strain New Guinea C). The conditions noted are these: inhibitor 10 mM, 10 mM GTP, read-out: Initial velocity compared to the protein without inhibitor. The procedure:
as §1, with “Filters were washed 3×10 min with 300 mM (NH4)2SO4 buffer, pH 8.0 and 2×5 min with EtOH and air-dried.” left out
In FIG. 5, the steady-state Km determination of GTP with various ligands was performed as follows: RNA polymerase activity was tested under conditions given in the description set forth above in the experiments related to FIG. 4 without the use of a primer. Initial velocities were determined over a time period of 5 min. […]
Initial velocities were determined on poly(rC) at 10 mM GTP and compared to corresponding values without inhibitor. […]

T2 sequence (Q9Q6P4 2802-3433 K2808N/V2900A): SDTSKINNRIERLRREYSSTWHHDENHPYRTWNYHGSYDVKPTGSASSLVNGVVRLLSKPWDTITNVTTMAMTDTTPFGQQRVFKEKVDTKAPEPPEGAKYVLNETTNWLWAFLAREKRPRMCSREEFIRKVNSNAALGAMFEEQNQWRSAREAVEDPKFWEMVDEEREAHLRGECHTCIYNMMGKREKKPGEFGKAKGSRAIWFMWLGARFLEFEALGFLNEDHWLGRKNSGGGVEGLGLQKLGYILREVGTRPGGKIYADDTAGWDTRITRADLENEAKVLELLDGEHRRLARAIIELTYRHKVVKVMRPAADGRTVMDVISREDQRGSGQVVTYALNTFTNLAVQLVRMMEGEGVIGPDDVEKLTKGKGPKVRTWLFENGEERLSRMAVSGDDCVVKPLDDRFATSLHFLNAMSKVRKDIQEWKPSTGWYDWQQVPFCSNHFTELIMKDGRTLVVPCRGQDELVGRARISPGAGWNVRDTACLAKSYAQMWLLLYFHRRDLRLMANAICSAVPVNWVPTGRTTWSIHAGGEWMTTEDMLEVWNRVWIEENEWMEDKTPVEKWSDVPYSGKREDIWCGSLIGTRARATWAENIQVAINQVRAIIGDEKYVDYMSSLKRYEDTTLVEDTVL

One may read the IC50 as the concentration needed to halve the response being measured. A high value points to weaker potency in that assay. For the molecule 3′-dioxolane 3′-deoxy GTP, the IC50 against NS5PolDV was determined as 1200 nM; at NS5PolWNV it was 58 µM.
Regarding `Nc1nc2c(ncn2[C@H]2CC[C@@H](COP(=O)(O)OP(=O)(O)OP(=O)(O)O)O2)c(=O)[nH]1` [2′,3′-dideoxy GTP], the IC50 against NS5PolDV was 800 nM.
Regarding `CO[C@@H]1[C@H](O)[C@@H](COP(=O)(O)OP(=O)(O)OP(=O)(O)O)O[C@H]1n1cnc2c(=O)[nH]c(N)nc21` [2′-O-methyl-GTP], the IC50 at NS5PolDV was determined as 5600 nM. The activity at 10000 µM at NS5PolDV (read-out: Initial velocity compared to the protein without inhibitor) was found to be 29.3%; at full-length NS5DV, 19.3%.
At NS5PolDV, `Nc1nc2c(ncn2[C@@H]2O[C@H](COP(=O)(O)OP(=O)(O)OP(=O)(O)O)C[C@H]2O)c(=O)[nH]1` [3′-deoxy GTP] showed an IC50 of 20 nM.
